In PMC8225628, “Bispecific repurposed medicines targeting the viral and immunological arms of COVID-19” (Scientific Reports, 2021):
Values joined by “and” are separate entries in the source; they are usually repeats but may differ in a detail not shown here. Identical values can stand only once. Like-named read-outs stand apart in the source and are kept apart here. *1 amine or outer side, *2 acyl side, *3 side chain or, on linkers, in order; H or OH if unused. Where a SMILES comes first, the peptide text is derived from it. Bridges are numbered along the chain shown (N, C = ends). [ ]: non-standard residue; d: D form. The star is where a group is joined. hTyr(3S-OH,4S-OH,3'-OSO3H) = N[C@H](C(=O)O)[C@H](O)[C@@H](O)c1ccc(O)c(OS(=O)(=O)O)c1; Orn(4R-OH,5R-OH) = O=C([C@H](C[C@@H](O)[C@@H](O)N[*:3])N[*:1])[*:2]; Pro(3S-OH,4S-Me) = C[C@H]1CN[C@H](C(=O)O)[C@H]1O; X1 = CCCCCOc1ccc(-c2cc(-c3ccc(C(=O)*)cc3)no2)cc1; Gln(3R-OH) = NC(=O)C[C@@H](O)[C@H](N)C(=O)O; Hyp = O=C(O)[C@@H]1C[C@@H](O)CN1

Experiments:
[1] = molecular target: SARS-CoV-2 M^pro (Severe acute respiratory syndrome coronavirus 2, UniProt P0DTD1); experiment: biochemical; settings: for inhibition at 10 µM: read-out: M^pro % inhibition at 10 µM
[2] = molecular target: SARS-CoV-2 PL^pro (Severe acute respiratory syndrome coronavirus 2, UniProt P0DTD1); experiment: biochemical; settings: for inhibition at 10 µM: read-out: PL^pro % inhibition at 10 µM
[3] = tested on: HUH7 cells; settings: 4 days
[4] = tested on: SARS-CoV-2; experiment: Antiviral assay, inhibition of SARS-CoV-2 cytopathic effect in HUH7_mCherry cells; settings: HUH7 cells
Experimental: To measure inhibition of the SARS-CoV-2 cytopathic effect, 96-well plates (Corning 3300) were plated with HUH7_mCherry cells at 6000 cells/well in 100 µl. The day after (Day 0), compound was added in a dilution series for concentration response studies. After two hours, addition of virus dilution (final MOI 0.004) was performed and plates were left for incubation at 37 °C, 5% CO2 for four days.
At day four post-infection, mCherry signal was captured using wide field fluorescence imaging by exciting at 560_25 nm and emitting with the BGRFRN filter set. A 5 X objective sufficed to capture 65–70% of an entire well on a 96well plate (4 pictures in total). The optimal exposure time was determined based on fluorescence intensity and was set on 0.09 s. A 2 × 2 binning was used and autofocus plane count was reduced to increase image acquisition speed. An image analysis protocol was developed in-house by using the SpotDetector bioapplication (Cellomics, Thermofisher). After background reduction on the raw image files, a fixed fluorescent intensity threshold was determined for the identification of mCherry cells. Afterwards, the number of fluorescent cells (‘object count’) was calculated per well and compared to the positive (cell control) and negative (virus) control.

[5] = molecular target: M^pro (Severe acute respiratory syndrome coronavirus 2, UniProt P0DTD1); experiment: M^pro SPR assay; type: binding
Text: Cytiva Biacore S200 and T200 machines were used for all SPR experiments. […] Scrubber 2 (Biologic software) was used to process and analyse SPR data. Kinetics were fitted using a 1:1 binding model with local Rmax for each concentration where required. Data for the inhibitors were referenced to those for a blank surface and blank injections to normalize for non-specific binding and drift. A DMSO calibration was run to remove excluded volume effect of binding responses between reference and target surface.

[6] = ReFRAME hits, >5e-6 = not potent enough to determine an IC50, read-out: M^pro IC50
[7] = ReFRAME hits, >5e-6 = not potent enough to determine an IC50, read-out: PL^pro IC50
[8] = SARS-CoV-2 PL^pro, range in brackets, read-out: IC50 (µM) (range)

## O=C(O)c1cccc(C[C@@H]2COc3ccc(OCc4nc5cc(F)ccc5s4)cc3[C@@H]2O)c1 [(+)-CP-85958]
[1]; ReFRAME hits
  M^pro % inhibition at 10 µM: 70%
[1]; [6]
  IC50: 2 µM
[2]; ReFRAME hits, 10 µM
  PL^pro % inhibition at 10 µM: 17%
[2]; [7]
  IC50: > 5 µM

## COc1ccc(-c2ccc(OCc3cc(C(=O)[N-]S(=O)(=O)c4ccccc4C)oc3C)cc2)nc1.[Na+] [BGC-20-1531]
[1]; ReFRAME hits
  M^pro % inhibition at 10 µM: 58%
[1]; [6]
  IC50: > 5 µM
[2]; ReFRAME hits, 10 µM
  PL^pro % inhibition at 10 µM: 24%
[2]; [7]
  IC50: > 5 µM

## CC(C)(C)NC(=O)N[C@H](C(=O)N1C[C@H]2[C@@H]([C@H]1C(=O)NC(CC1CCC1)C(=O)C(N)=O)C2(C)C)C(C)(C)C (some centres unmarked) [Boceprevir, reference compound]
[1]; ReFRAME hits
  inhibition at 10 µM: 62%
[2]; ReFRAME hits, 10 µM
  inhibition at 10 µM: -2%

## O=C(NCc1ccccn1)C(=O)C(Cc1ccccc1)NC(=O)C1CCC(=O)N1Cc1ccccc1 (centres unmarked) [Compound 1]
[3]; HUH7 cells
  Concentration up to which non-cytotoxic: up to 100 µM
[4]; at 100 µM
  Antiviral effect: 75%

## O=C(NC1CC1)C(=O)C(Cc1ccccc1)NC(=O)C1CCC(=O)N1Cc1ccccc1 (centres unmarked) [Compound 2, ABT-957, reference compound]
[1]; [6]
  IC50: > 5 µM
[1]; read-out: IC50 against M^pro
  IC50: > 100 µM
[1]; ReFRAME hits
  inhibition at 10 µM: 73%
[2]; ReFRAME hits, 10 µM
  inhibition at 10 µM: 17%
[2]; read-out: PL^pro IC50
  IC50: > 5 µM

## CCOC(=O)C[C@H](NC(=O)[C@H](C)NC(=O)[C@@H](NC(=O)OCc1ccccc1)C(C)C)C(=O)COC(=O)c1c(Cl)cccc1Cl [Compound 4, Ethyl (5S,8S,11S)-11-(2-((2,6-dichlorobenzoyl)oxy)acetyl)-5-isopropyl-8-methyl-3,6,9-trioxo-1-phenyl-2-oxa-4,7,10-triazatridecan-13-oate, reference compound]
[1]; 30 nM is the biochemical limit of the assay, read-out: IC50 against M^pro
  IC50: 0.03 µM
[1]; ReFRAME hits
  inhibition at 10 µM: 95%
[2]; ReFRAME hits, 10 µM
  inhibition at 10 µM: 19%
[2]; read-out: PL^pro IC50
  IC50: > 5 µM
[5]
  Binding to M^pro in SPR (in words): confirmed to bind
[5]; in the presence of slow off-rate inhibitor N3
  Binding to M^pro in SPR (in words): no binding observed
[3]; human
  Concentration up to which non-cytotoxic: ≤ 10 µM
[4]; at 10 µM, dose refreshed daily
  Antiviral effect: 50%

## CCOC1OC(=O)CC1NC(=O)C1CCCN1C(=O)C(NC(=O)c1ccc(N)c(Cl)c1)C(C)(C)C (centres unmarked) [Compound 7, belnecasan, reference compound]
[1]
  Inhibition of M^pro (in words): did not substantially inhibit

## CCOc1cc2ncc(C#N)c(Nc3ccc(F)c(Cl)c3)c2cc1NC(=O)/C=C/CN(C)C [Compound 10, Pelitinib, reference compound]
[1]
  Inhibition of M^pro (in words): not determined to display significant biochemical inhibition
[2]; [8]
  IC50: > 100 µM

## CN(C)C/C=C/C(=O)Nc1cc2c(Nc3ccc(F)c(Cl)c3)ncnc2cc1O[C@H]1CCOC1 [Compound 11, Afatinib, reference compound]
[2]; [8]
  IC50: 12 µM

## COc1cc2ncnc(Nc3ccc(F)c(Cl)c3)c2cc1NC(=O)/C=C/CN1CCCCC1 [Compound 12, Dacomitinib, reference compound]
[2]; [8]
  IC50: 4 µM

## CCC[C@@H](NC(=O)N1C(=O)C(CC)(CC)[C@@H]1Oc1ccc(CC(=O)O)cc1)c1ccc(C)cc1 [L 680833]
[1]; ReFRAME hits
  M^pro % inhibition at 10 µM: 36%
[1]; [6]
  IC50: > 5 µM
[2]; ReFRAME hits, 10 µM
  PL^pro % inhibition at 10 µM: 11%
[2]; [7]
  IC50: > 5 µM

## COc1ccc(/C=C/CCCCOc2ccc(C(=O)c3cccc(C(=O)O)c3)cc2CCC(=O)O)cc1 [LY 223982]
[1]; ReFRAME hits
  M^pro % inhibition at 10 µM: 43%
[1]; [6]
  IC50: > 5 µM
[2]; ReFRAME hits, 10 µM
  PL^pro % inhibition at 10 µM: 22%
[2]; [7]
  IC50: > 5 µM

## Nc1nc(N)nc(Nc2ccc([As]3SC(C(=O)O)C(C(=O)O)S3)cc2)n1 (centres unmarked) [MELARSONYL]
[2]
  PL^pro % inhibition at 10 µM: 11%
[2]; read-out: PL^pro IC50
  IC50: > 5 µM

## Cl.Cl.Cl.Cl.N=C(N)NCCCCC(=O)Nc1cc(C(F)(F)F)cc(NC(=O)c2cc(C(=O)Nc3cc(C(F)(F)F)cc(NC(=O)CCCCNC(=N)N)c3O[C@@H]3CCNC3)ncn2)c1O[C@@H]1CCNC1 [PMX-30063]
[1]; ReFRAME hits
  M^pro % inhibition at 10 µM: 11%
[1]; [6]
  IC50: > 5 µM
[2]; ReFRAME hits, 10 µM
  PL^pro % inhibition at 10 µM: 30%
[2]; [7]
  IC50: 2 µM

## CN1CCCN=C1/C=C/c1cccs1 [Pyrantel pamoate, reference compound]
[2]
  IC50: > 5 µM

## CN(C/C=C/C#CC(C)(C)C)Cc1cccc2c(F)cc(F)cc12 [SDZ-880-540]
[1]; ReFRAME hits
  M^pro % inhibition at 10 µM: -1%
[1]; [6]
  IC50: > 5 µM
[2]; ReFRAME hits, 10 µM
  PL^pro % inhibition at 10 µM: 15%
[2]; [7]
  IC50: > 5 µM

## CC(=O)[O][Hg][c]1cc(C(C)(C)CC(C)(C)C)ccc1O [acetomeroctol]
[2]
  PL^pro % inhibition at 10 µM: 7%
[2]; read-out: PL^pro IC50
  IC50: > 5 µM

## O=c1cc(-c2ccc(O)c(-c3c(O)cc(O)c4c(=O)cc(-c5ccc(O)cc5)oc34)c2)oc2cc(O)cc(O)c12 [amentoflavone]
[1]; ReFRAME hits
  inhibition at 10 µM: 34%
[2]; ReFRAME hits, 10 µM
  inhibition at 10 µM: 4%
[2]; read-out: PL^pro IC50
  IC50: > 5 µM

## O=C1OC2(c3ccccc31)c1cc(I)c(O)c(I)c1Oc1c2cc(I)c(O)c1I [erythrosine]
[1]; ReFRAME hits
  inhibition at 10 µM: 58%
[2]
  IC50: > 5 µM
[2]; ReFRAME hits, 10 µM
  inhibition at 10 µM: 20%

## CO[C@H]1O[C@H](COS(=O)(=O)[O-])[C@@H](O[C@@H]2O[C@@H](C(=O)[O-])[C@@H](O[C@H]3O[C@H](COS(=O)(=O)[O-])[C@@H](O[C@@H]4O[C@H](C(=O)[O-])[C@@H](O[C@H]5O[C@H](COS(=O)(=O)[O-])[C@@H](O)[C@H](O)[C@H]5NS(=O)(=O)[O-])[C@H](O)[C@H]4O)[C@H](OS(=O)(=O)[O-])[C@H]3NS(=O)(=O)[O-])[C@H](O)[C@H]2OS(=O)(=O)[O-])[C@H](O)[C@H]1NS(=O)(=O)[O-].[Na+].[Na+].[Na+].[Na+].[Na+].[Na+].[Na+].[Na+].[Na+].[Na+] [fondaparinux (sodium), reference compound]
[1]; ReFRAME hits
  M^pro % inhibition at 10 µM: 80%
[1]; [6]
  IC50: 2 µM
[2]; ReFRAME hits, 10 µM
  PL^pro % inhibition at 10 µM: 23%
[2]; [7]
  IC50: > 5 µM

## Cc1cc(O)c2c(=O)c3c(O)cc(O)c4c5c(O)cc(O)c6c(=O)c7c(O)cc(C)c8c1c2c(c34)c(c78)c65 [hypericin]
[2]; ReFRAME hits, 10 µM
  inhibition at 10 µM: 12%
[2]; read-out: PL^pro IC50
  IC50: > 5 µM

## [Cl][Hg][Cl] [mercuric chloride]
[2]; ReFRAME hits, 10 µM
  PL^pro % inhibition at 10 µM: 16%
[2]; [7]
  IC50: > 5 µM

## CCCCCOc1ccc(-c2cc(-c3ccc(C(=O)N[C@H]4C[C@@H](O)[C@@H](O)NC(=O)[C@@H]5[C@@H](O)[C@@H](C)CN5C(=O)[C@H]([C@H](O)CC(N)=O)NC(=O)[C@H]([C@H](O)[C@@H](O)c5ccc(O)c(OS(=O)(=O)[O-])c5)NC(=O)[C@@H]5C[C@@H](O)CN5C(=O)[C@H]([C@@H](C)O)NC4=O)cc3)no2)cc1.[Na+] [micafungin Sodium, reference compound] (X1-[Orn(4R-OH,5R-OH)]T[Hyp][hTyr(3S-OH,4S-OH,3'-OSO3H)][Gln(3R-OH)][Pro(3S-OH,4S-Me)]; lactam 1-C)
[2]; ReFRAME hits, 10 µM
  PL^pro % inhibition at 10 µM: 24%
[2]; [7]
  IC50: > 5 µM

## O=C(N/N=C/c1ccc([N+](=O)[O-])o1)c1cc([N+](=O)[O-])cc([N+](=O)[O-])c1O [nifursol]
[1]; ReFRAME hits
  inhibition at 10 µM: 43%
[2]; ReFRAME hits, 10 µM
  inhibition at 10 µM: 23%
[2]; read-out: PL^pro IC50
  IC50: > 5 µM

## CN1CCCN=C1/C=C/c1cccc(O)c1 [oxantel (pamoate), reference compound]
[2]; [7]
  IC50: > 5 µM

## CN1CCCN=C1/C=C/c1cccc(O)c1.O=C(O)c1cc2ccccc2c(Cc2c(O)c(C(=O)O)cc3ccccc23)c1O [oxantel (pamoate), reference compound]
[2]; ReFRAME hits, 10 µM
  PL^pro % inhibition at 10 µM: 11%

## Cc1cccnc1NS(=O)(=O)c1ccc(C#Cc2ccc(O)c(C(=O)O)c2)cc1 [susalimod]
[1]; ReFRAME hits
  inhibition at 10 µM: 31%
[1]; read-out: M^pro IC50
  IC50: > 5 µM
[2]; ReFRAME hits, 10 µM
  inhibition at 10 µM: 22%
[2]; read-out: PL^pro IC50
  IC50: > 5 µM

## CC(=O)Oc1ccccc1C(=O)OC1OC(=O)c2ccccc21 (centres unmarked) [talosalate]
[1]; ReFRAME hits
  M^pro % inhibition at 10 µM: 80%
[1]; [6]
  IC50: 4 µM
[2]; ReFRAME hits, 10 µM
  PL^pro % inhibition at 10 µM: 13%
[2]; [7]
  IC50: > 5 µM

## (-)-epicatechin gallate
[2]; ReFRAME hits, 10 µM
  PL^pro % inhibition at 10 µM: 11%
[2]; [7]
  IC50: > 5 µM

## SENNOSIDES [reference compound]
[1]; ReFRAME hits
  M^pro % inhibition at 10 µM: 92%
[1]; [6]
  IC50: 0.7 µM
[2]; ReFRAME hits, 10 µM
  PL^pro % inhibition at 10 µM: 72%
[2]; [7]
  IC50: > 5 µM

## [(-)-epicatechin]
[2]; ReFRAME hits, 10 µM
  PL^pro % inhibition at 10 µM: 16%
[2]; [7]
  IC50: > 5 µM

## teicoplanin [reference compound]
[2]; ReFRAME hits, 10 µM
  PL^pro % inhibition at 10 µM: 88% and 81%
